From paper PMC9318133 (International Journal of Molecular Sciences, 2022)

System: fEPSP of CA1 area of mouse hippocampal slice
Assay: Electrophysiological recording of fEPSP in hippocampal slices
Format: cell-based
Conditions: AM-251 2 µM; JWH-175 and JWH-018 both at 1 µM; data not shown
Experimental: Procedures for tissue preparation are the same as those described by Ossato et al., 2016 [45]. In brief, after mouse decapitation, the head was immediately chilled in refrigerated artificial cerebrospinal fluid (aCSF, 0 °C) of the following composition (in mM): NaCl, 126; KCl, 2; KH2PO4, 1.25; NaHCO3, 26; MgSO4, 2.0; CaCl2, 2.5; d-glucose, 10. After 1 min, the brain was extracted to isolate the hippocampus and then placed in ice-cold artificial cerebrospinal fluid (aCSF). All solutions were saturated with 95% O2/5% CO2. Transverse hippocampal slices (425 μm thick) were cut with a tissue chopper and then placed for almost 90 min in a Haas-style incubation chamber for recovery before recording.
A single slice was transferred into a submerged-type recording chamber (3 mL total volume) and continuously superfused (3.0 mL/min) with warmed (32–33 °C) aCSF. WINLTP 2.10 computer software was used for stimulus triggering, PC recording, and analysis. Synaptic responses of CA1 pyramidal neurons were elicited by electrical stimulation of the Schaffer collateral/commissural pathway. Single stimulation pulses (80 µs duration; 0.05 Hz) were delivered by mean of a concentric bipolar electrode (o.d. 125 μm, FHC, USA) connected to a Grass S11 stimulator driving a PSIU6 constant current stimulus isolation unit. To record the fEPSPs, borosilicate glass electrodes fabricated using a microelectrode puller (P97, Sutter Instruments) and filled with aCSF (1.5 ± 0.5 MΩ), inserted in the distal third of the stratum radiatum and 200–300 µm away from stimulating electrodes, were used. The maximal fEPSPs response was reached by adjusting the recording electrode depth. Recorded potentials were amplified (Axoprobe 1A DC-coupled—Cyberamp 320, Molecular Devices, Sunnyvale, CA, USA) and filtered (5.0 kHz) prior to A/D conversion. Upon 10 min of stable synaptic response, a stimulus–response curve (SRC) was generated as previously described to extrapolate a stimulation intensity evoking 70% of maximal fEPSP, to be used throughout the experiment. […] To investigate whether the vehicle had any effect on synaptic activity, the superfusion inlet was switched to a reservoir containing aCSF plus the amount of vehicle present for the corresponding drug concentration (sham application), before switching to the solution also including the drug, for comparison. All reservoirs and tubing were on glass or Teflon to avoid the capturing of cannabinoids by plastic or silicon parts.
We analyzed data from in vitro recordings as previously described. […] Effect of treatment was considered steady state when stable +/− 5% for 10 min.

Structure (SMILES): Cc1c(C(=O)NN2CCCCC2)nn(-c2ccc(Cl)cc2Cl)c1-c1ccc(I)cc1 [AM-251, 1-(2,4-dichlorophenyl)-5-(4-iodophenyl)-4-methyl-N-1-piperidinyl-1H-pyrazole-3-carboxamide]
- effect of AM-251 perfusion on the inhibitory effect of JWH-175 and JWH-018 on fEPSP: completely prevented
